In patent US8574563B2 (Bristol-Myers Squibb Company, priority 2006, dated 2013):
Read-outs that look alike come from different tables or passages of the source.

Tested on: HCV 1b-377-neo replicon cells
Experiment: HCV replicon assay, HCV 1b-377-neo replicon cells (1b FRET)
Type: cell-based, Hepatitis C virus genotype 1b
Conditions: HCV 1b-377-neo replicon cells, HCV 1b genotype, read-out: EC50 range against HCV 1b (Table 2, Range)
Summary of the method: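 Compounds were tested in genotype 1b subgenomic replicon cells carrying a neomycin marker, alongside a matched replicon line with an NS5A Y2065H substitution that confers resistance to a reference NS5A inhibitor.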

Structure (SMILES) | EC50 (Hepatitis C virus) [nM] | EC50 [nM]
COC(=O)N[C@@H](C(=O)N1CCC[C@H]1c1ncc(-c2ccc(-c3ccc(-c4cnc([C@@H]5CCCN5C(=O)[C@H]5CCCN5C)[nH]4)cc3)cc2)[nH]1)c1ccccc1 [Example 51, methyl ((1R)-2-((2S)-2-(5-(4′-(2-((2S)-1-(1-methyl-D-prolyl)-2-pyrrolidinyl)-1H-imidazol-5-yl)-4-biphenylyl)-1H-imidazol-2-yl)-1-pyrrolidinyl)-2-oxo-1-phenylethyl)carbamate] | 0.001 to 0.999 | –
COC(=O)N[C@@H]1CC[C@H](C(=O)N2CCC[C@H]2c2ncc(-c3ccc(-c4ccc(-c5cnc([C@@H]6CCCN6C(=O)[C@@H](NC(=O)OC)C(C)C)[nH]5)cc4)cc3)[nH]2)C1 [cj-62, methyl ((1S)-1-(((2S)-2-(5-(4′-(2-((2S)-1-(((1S,3R)-3-((methoxycarbonyl)amino)cyclopentyl)carbonyl)-2-pyrrolidinyl)-1H-imidazol-5-yl)-4-biphenylyl)-1H-imidazol-2-yl)-1-pyrrolidinyl)carbonyl)-2-methylpropyl)carbamate] | 0.001 to 0.999 | –
COC(=O)N[C@@H](C(=O)N1CCC[C@H]1c1ncc(-c2ccc(-c3ccc(-c4cnc([C@@H]5CCCN5C(=O)C5CC5)[nH]4)cc3)cc2)[nH]1)c1ccccc1 [Example 33, methyl ((1R)-2-((2S)-2-(5-(4′-(2-((2S)-1-(cyclopropylcarbonyl)-2-pyrrolidinyl)-1H-imidazol-5-yl)-4-biphenylyl)-1H-imidazol-2-yl)-1-pyrrolidinyl)-2-oxo-1-phenylethyl)carbamate] | 0.001 to 0.999 | –
C[C@@H](c1ncc(-c2ccc(-c3ccc(-c4cnc([C@H](C)N(C)C(=O)[C@@H](c5ccccc5)N(C)C)[nH]4)cc3)cc2)[nH]1)N(C)C(=O)[C@@H](c1ccccc1)N(C)C [Example 24-18-2, (2R,2′R)-N,N′-(4,4′-biphenyldiylbis(1H-imidazole-5,2-diyl(1S)-1,1-ethanediyl))bis(2-(dimethylamino)N-methyl-2-phenylacetamide)] | 0.001 to 0.999 | –
CCN(CC)[C@H](C)C(=O)N1CCC[C@H]1c1ncc(-c2ccc(-c3ccc(-c4cnc([C@@H]5CCCN5C(=O)[C@H](NC(=O)OC)c5ccccc5)[nH]4)cc3)cc2F)[nH]1 [Example D48, methyl ((1R)-2-((2S)-2-(5-(4′-(2-((2S)-1-(N,N-diethyl-D-alanyl)-2-pyrrolidinyl)-1H-imidazol-5-yl)-3′-fluoro-4-biphenylyl)-1H-imidazol-2-yl)-1-pyrrolidinyl)-2-oxo-1-phenylethyl)carbamate] | 0.001 to 0.999 | –
CN(C)[C@@H](C(=O)N1CCC[C@H]1c1ncc(-c2ccc(-c3ccc(-c4cnc([C@@H]5CCCN5C(=O)[C@@H](c5ccccc5)N(C)C)[nH]4)cc3)cc2)[nH]1)c1ccccc1 [Example 1, (1R,1′R)-2, 2′-(4,4′-biphenyldiylbis (1H-imidazole-5,2-diyl(2S)-2,1-pyrrolidinediyl))bis(N,N-dimethyl-2-oxo-1-phenylethanamine)] | 0.001 to 0.999 | –
COC(=O)N[C@@H](C)C(=O)N1CCC[C@H]1c1ncc(-c2ccc(-c3ccc(-c4cnc([C@@H]5CCCN5C(=O)[C@H](Cc5cccnc5)NC(=O)OC)[nH]4)cc3)cc2)[nH]1 [cj-85, methyl ((1S)-2-((2S)-2-(5-(4′-(2-((2S)-1-(N-(methoxycarbonyl)-L-alanyl)-2-pyrrolidinyl)-1H-imidazol-5-yl)-4-biphenylyl)-1H-imidazol-2-yl)-1-pyrrolidinyl)-2-oxo-1-(3-pyridinylmethyl)ethyl)carbamate] | 0.001 to 0.999 | –
CN(C)[C@@H](C(=O)N1CCC[C@H]1c1ncc(-c2ccc(-c3ccc(-c4cnc([C@@H]5CCCN5C(=O)N5CCOCC5)[nH]4)cc3)cc2)[nH]1)c1ccccc1 [Example 93, (1R)-N,N-dimethyl-2-((2S)-2-(5-(4′-(2-((2S)-1-(4-morpholinylcarbonyl)-2-pyrrolidinyl)-1H-imidazol-5-yl)-4-biphenylyl)-1H-imidazol-2-yl)-1-pyrrolidinyl)-2-oxo-1-phenylethanamine] | 0.001 to 0.999 | –
COC(=O)N[C@@H](CC(=O)N1CCC[C@H]1c1ncc(-c2ccc(-c3ccc(-c4cnc([C@@H]5CCCN5C(=O)C[C@@H](Cc5ccsc5)NC(=O)OC)[nH]4)cc3)cc2)[nH]1)Cc1ccsc1 [cj-137, dimethyl (4,4′-biphenyldiylbis(1H-imidazole-5,2-diyl(2S)-2,1-pyrrolidinediyl((2R)-4-oxo-1-(3-thienyl)-4,2-butanediyl)))biscarbamate] | 1 to 99 | –
COCC[C@H](NC(=O)OC)C(=O)N1CCC[C@H]1c1ncc(-c2ccc(-c3ccc(-c4cnc([C@@H]5CCCN5C(=O)[C@H](CCOC)NC(=O)OC)[nH]4)cc3)cc2)[nH]1 [cj-156, methyl ((1S)-3-methoxy-1-(((2S)-2-(5-(4′-(2-((2S)-1-(N-(methoxycarbonyl)-O-methyl-L-homoseryl)-2-pyrrolidinyl)-1H-imidazol-5-yl)-4-biphenylyl)-1H-imidazol-2-yl)-1-pyrrolidinyl)carbonyl)propyl)carbamate] | 0.001 to 0.999 | –
CCN(CC)[C@@H](C(=O)N1CCC[C@H]1c1ncc(-c2ccc(-c3ccc(-c4cnc([C@@H]5CCCN5C(=O)[C@@H](NC(=O)OC)C5CCOCC5)[nH]4)cc3)cc2)[nH]1)c1ccccc1 [LS14, methyl ((1S)-2-((2S)-2-(5-(4′-(2-((2S)-1-((2R)-2-(diethylamino)-2-phenylacetyl)-2-pyrrolidinyl)-1H-imidazol-5-yl)-4-biphenylyl)-1H-imidazol-2-yl)-1-pyrrolidinyl)-2-oxo-1-(tetrahydro-2H-pyran-4-yl)ethyl)carbamate] | 0.001 to 0.999 | –
COC(=O)N[C@@H](C)C(=O)N1CCC[C@H]1c1ncc(-c2ccc(-c3ccc(-c4cnc([C@@H]5CCCN5C(=O)[C@@H](NC5=NCCN5)C(C)C)[nH]4)cc3)cc2)[nH]1 [cj-11f, methyl ((1S)-2-((2S)-2-(5-(4′-(2-((2S)-1-(N-(4,5-dihydro-1H-imidazol-2-yl)-L-valyl)-2-pyrrolidinyl)-1H-imidazol-5-yl)-4-biphenylyl)-1H-imidazol-2-yl)-1-pyrrolidinyl)-1-methyl-2-oxoethyl)carbamate] | 1 to 99 | –
COC(=O)N[C@H](C(=O)N1CC(F)(F)C[C@H]1c1ncc(-c2ccc(-c3ccc(-c4cnc([C@@H]5CC(F)(F)CN5C(=O)[C@@H](NC(=O)OC)[C@@H](C)OC)[nH]4)cc3)cc2)[nH]1)[C@@H](C)OC [OL-10, methyl ((1S,2R)-1-(((2S)-2-(4-(4′-(2-((2S)-4,4-difluoro-1-(N-(methoxycarbonyl)-O-methyl-L-threonyl)-2-pyrrolidinyl)-1H-imidazol-4-yl)-4-biphenylyl)-1H-imidazol-2-yl)-4,4-difluoro-1-pyrrolidinyl)carbonyl)-2-methoxypropyl)carbamate] | 0.001 to 0.999 | –
CCN(CC)[C@@H](C(=O)N1CCC[C@H]1c1ncc(-c2ccc(-c3ccc(-c4cnc([C@@H]5CCCN5C(=O)C[C@H](Cc5ccccc5)NC(=O)OC)[nH]4)cc3)cc2)[nH]1)c1ccccc1 [cj-53, methyl ((1S)-1-benzyl-3-((2S)-2-(5-(4′-(2-((2S)-1-((2R)-2-(diethylamino)-2-phenylacetyl)-2-pyrrolidinyl)-1H-imidazol-5-yl)-4-biphenylyl)-1H-imidazol-2-yl)-1-pyrrolidinyl)-3-oxopropyl)carbamate] | 0.001 to 0.999 | –
C[C@@H](C(=O)N1CCC[C@H]1c1ncc(-c2ccc(-c3ccc(-c4cnc([C@@H]5CCCN5C(=O)[C@@H](c5ccccc5)N5CCCC5)[nH]4)cc3)cc2)[nH]1)N(C)C [Example 103, (2S)-N,N-dimethyl-1-oxo-1-((2S)-2-(5-(4′-(2-((2S)-1-((2R)-2-phenyl-2-(1-pyrrolidinyl)acetyl)-2-pyrrolidinyl)-1H-imidazol-5-yl)-4-biphenylyl)-1H-imidazol-2-yl)-1-pyrrolidinyl)-2-propanamine] | 0.001 to 0.999 | –
C[C@@](O)(C(=O)N1CCC[C@H]1c1ncc(-c2ccc(-c3ccc(-c4cnc([C@@H]5CCCN5C(=O)[C@@](C)(O)c5ccccc5)[nH]4)cc3)cc2)[nH]1)c1ccccc1 [Example 3, (2S,2′S)-1,1′-(4,4′-biphenyldiylbis(1H-imidazole-5,2-diyl(2)-2,1-pyrrolidinediyl))bis(1-oxo-2-phenyl-2-propanol)] | – | 0.001 to 0.999
COC(=O)N[C@@H](Cc1ccccn1)C(=O)N1CCC[C@H]1c1ncc(-c2ccc(-c3ccc(-c4cnc([C@@H]5CCCN5C(=O)[C@@H](NC(=O)OC)[C@@H](C)OC)[nH]4)cc3)cc2)[nH]1 [cj-67] | 0.001 to 0.999 | –
COC(=O)N[C@@H](C(=O)N1CCC[C@H]1c1ncc(-c2ccc(-c3ccc(-c4cnc([C@@H]5CCCN5C(=O)C(c5ccccc5)c5ccccc5)[nH]4)cc3)cc2)[nH]1)c1ccccc1 [Example 84-38, methyl ((1R)-2-((2S)-2-(5-(4′-(2-((2S)-1-(diphenylacetyl)-2-pyrrolidinyl)-1H-imidazol-5-yl)-4-biphenylyl)-1H-imidazol-2-yl)-1-pyrrolidinyl)-2-oxo-1-phenylethyl)carbamate] | 0.001 to 0.999 | –
COC(=O)N[C@@H](C)C(=O)N1CCC[C@H]1c1ncc(-c2ccc(-c3ccc(-c4cnc([C@@H]5CCCN5C(=O)[C@@H](c5ccccc5)N(C)C)[nH]4)cc3)cc2)[nH]1 [Example 92, methyl ((1S)-2-((2S)-2-(5-(4′-(2-((2S)-1-((2R)-2-(dimethylamino)-2-phenylacetyl)-2-pyrrolidinyl)-1H-imidazol-5-yl)-4-biphenylyl)-1H-imidazol-2-yl)-1-pyrrolidinyl)-1-methyl-2-oxoethyl)carbamate] | 0.001 to 0.999 | –
COC(=O)N[C@@H]1CCCC[C@@H]1C(=O)N1CCC[C@H]1c1ncc(-c2ccc(-c3ccc(-c4cnc([C@@H]5CCCN5C(=O)[C@H]5CCCC[C@H]5NC(=O)OC)[nH]4)cc3)cc2)[nH]1 [cj-141, dimethyl (4,4′-biphenyldiylbis(1H-imidazole-5,2-diyl(2S)-2,1-pyrrolidinediylcarbonyl(1R,2S)-2,1-cyclohexanediyl))biscarbamate] | 1000 to 10000 | –
